MIC data for 16 molecules are collected here from DBAASP.

What all share (experiment): ≥ marks a high value that may be exact or a test limit, other limits are often not marked, values filed in µg/mL are converted to µM
Test [1] relates to Escherichia coli JW0013.
In test [2] the test system is Escherichia coli UB1005.
Test [3] concerns Pseudomonas aeruginosa PAO1.
For test [4], the system named is Staphylococcus aureus ATCC 25923.
Test [5] concerns Pseudomonas aeruginosa Ps4.
In test [6] the test system is Escherichia coli ATCC 25922.
Test [7] has as its system Bacillus subtilis 168.
Test [8] concerns Candida albicans F7-39/IDE99.
The test system of test [9] is Escherichia coli B.
Test [10] relates to Micrococcus luteus CCM 144.
Test [11] relates to Pseudomonas aeruginosa.
Test [12] deals with Staphylococcus aureus.

In brackets after ≈: the same amount, converted by molar mass.

The MIC is the lowest concentration that inhibits growth of the organism. Lower therefore signals inhibition by little substance. As for `CC[C@H](C)[C@H](NC(=O)[C@H](CCCN=C(N)N)NC(=O)[C@H](CCCN=C(N)N)NC(=O)[C@@H]1CCCN1C(=O)[C@@H]1CCCN1C(=O)[C@H](CCCN=C(N)N)NC(=O)[C@H](CCCN=C(N)N)NC(=O)[C@H](CCCN=C(N)N)NC(=O)[C@@H]1CCCN1C(=O)[C@H](CC(C)C)NC(=O)[C@H](Cc1ccc(O)cc1)NC(=O)[C@@H]1CCCN1C(=O)[C@@H]1CCCN1C(=O)[C@H](CCCCN)NC(=O)[C@H](CC(=O)O)NC(=O)[C@@H](N)C(C)C)C(=O)N[C@@H](Cc1ccc(O)cc1)C(=O)N[C@@H](CC(N)=O)C(=O)N[C@@H](CCCN=C(N)N)C(N)=O` [VDKPPYLPRRRPPRRIYNR], the MIC in [1] stood at 0.98 µM (≈ 2.4 µg/mL); in test [2], 2.04 µM (≈ 5 µg/mL); in test [3] it was 26.1 µM (≈ 64 µg/mL); in test [4], 6.53 µM (≈ 16 µg/mL).

As for `CC[C@H](C)[C@H](NC(=O)[C@H](CCCN=C(N)N)NC(=O)[C@H](CCCN=C(N)N)NC(=O)[C@@H]1CCCN1C(=O)[C@@H]1CCCN1C(=O)[C@H](CCCN=C(N)N)NC(=O)[C@@H]1CCCN1C(=O)[C@H](CCCN=C(N)N)NC(=O)[C@@H]1CCCN1C(=O)[C@H](CC(C)C)NC(=O)[C@H](CCCN=C(N)N)NC(=O)[C@H](Cc1cnc[nH]1)NC(=O)[C@H](CCCN=C(N)N)NC(=O)[C@H](CCCCN)NC(=O)[C@H](CC(=O)O)NC(=O)[C@@H](N)C(C)C)C(=O)N[C@@H](Cc1ccc(O)cc1)C(=O)N[C@@H](CC(N)=O)C(=O)N[C@@H](CCCN=C(N)N)C(N)=O` [VDKRHRLPRPRPPRRIYNR], the MIC in test [1] was found to be 0.524 µM (≈ 1.3 µg/mL). In other words, the sub-micromolar range.

`CC[C@H](C)[C@H](NC(=O)[C@H](CCCN=C(N)N)NC(=O)[C@@H](NC(=O)[C@H](CC(N)=O)NC(=O)[C@H](CCCN=C(N)N)NC(=O)CNC(=O)[C@H](Cc1c[nH]c2ccccc12)NC(=O)[C@@H](N)Cc1ccccc1)[C@@H](C)CC)C(=O)N[C@@H](CCCN=C(N)N)C(=O)N[C@@H](CCCN=C(N)N)C(N)=O` [FWGRNIRIRR] had an MIC in test [5] not below 182 µM.

In turn, `CC[C@H](C)[C@H](NC(=O)[C@H](CCCCN)NC(=O)[C@H](CCCN=C(N)N)NC(=O)[C@@H](NC(=O)[C@H](CC(N)=O)NC(=O)[C@H](CCCN=C(N)N)NC(=O)[C@H](CCC(N)=O)NC(=O)[C@H](Cc1c[nH]c2ccccc12)NC(=O)[C@@H](N)Cc1ccccc1)[C@@H](C)CC)C(=O)N[C@@H](CCCN=C(N)N)C(N)=O` [FWQRNIRKIR] registered an MIC in test [5] not below 176 µM.

As to `CC[C@H](C)[C@H](NC(=O)[C@H](CCCN=C(N)N)NC(=O)[C@H](CCCN=C(N)N)NC(=O)[C@@H]1CCCN1C(=O)[C@@H]1CCCN1C(=O)[C@H](CCCN=C(N)N)NC(=O)[C@@H]1CCCN1C(=O)[C@H](CCCN=C(N)N)NC(=O)[C@@H]1CCCN1C(=O)[C@H](CC(C)C)NC(=O)[C@H](CCCN=C(N)N)NC(=O)[C@@H]1CCCN1C(=O)[C@@H]1CCCN1C(=O)[C@H](CCCCN)NC(=O)[C@H](CC(=O)O)NC(=O)[C@@H](N)C(C)C)C(=O)N[C@@H](Cc1ccc(O)cc1)C(=O)N[C@@H](CC(N)=O)C(=O)N[C@@H](CCCN=C(N)N)C(N)=O` [VDKPPRLPRPRPPRRIYNR], the MIC in [1] stood at 1.38 µM (≈ 3.3 µg/mL).

For the molecule `CCC(C)C(NC(=O)C(CC(N)=O)NC(=O)C(CCCN=C(N)N)NC(=O)C(CCC(N)=O)NC(=O)C(Cc1c[nH]c2ccccc12)NC(=O)C(CCC(N)=O)NC(=O)C(N)Cc1ccccc1)C(=O)NC(CCCN=C(N)N)C(=O)NC(CCCCN)C(=O)NC(C(=O)NC(CCCN=C(N)N)C(N)=O)C(C)C` (stereo not given) [FQWQRNIRKVR], the MIC in test [6] was more than 163 µM; in test [5] it was not below 163 µM.

As to `CC[C@H](C)[C@H](NC(=O)[C@H](CC(N)=O)NC(=O)[C@H](CCCN=C(N)N)NC(=O)[C@H](C)NC(=O)[C@H](Cc1c[nH]c2ccccc12)NC(=O)[C@@H](NC(=O)[C@@H](N)Cc1ccccc1)C(C)C)C(=O)N[C@@H](CCCN=C(N)N)C(=O)N[C@@H](CCCCN)C(=O)N[C@H](C(=O)N[C@@H](CCCN=C(N)N)C(N)=O)C(C)C` [FVWARNIRKVR], the MIC in test [5] was not below 173 µM.

As for `CC[C@H](C)[C@H](NC(=O)[C@H](CCCN=C(N)N)NC(=O)[C@H](CCCN=C(N)N)NC(=O)[C@@H]1CCCN1C(=O)[C@@H]1CCCN1C(=O)[C@H](CCCN=C(N)N)NC(=O)[C@@H]1CCCN1C(=O)[C@H](CCCN=C(N)N)NC(=O)[C@@H]1CCCN1C(=O)[C@H](CC(C)C)NC(=O)[C@H](Cc1ccc(O)cc1)NC(=O)[C@@H]1CCCN1C(=O)[C@H](CC(=O)O)NC(=O)[C@H](CCCCN)NC(=O)[C@H](CC(=O)O)NC(=O)[C@@H](N)C(C)C)C(=O)N[C@@H](Cc1ccc(O)cc1)C(=O)N[C@@H](CC(N)=O)C(=O)N[C@@H](CCCN=C(N)N)C(N)=O` [VDKDPYLPRPRPPRRIYNR], in [1], the minimum inhibitory concentration (MIC) is 1.99 µM (≈ 4.8 µg/mL).

With `CC(C)C[C@H](NC(=O)[C@H](C)NC(=O)CNC(=O)[C@H](Cc1c[nH]c2ccccc12)NC(=O)[C@H](CC(N)=O)NC(=O)[C@@H](N)CC(C)C)C(=O)N[C@@H](CC(C)C)C(=O)N[C@@H](CCCCN)C(=O)N[C@@H](Cc1cnc[nH]1)C(=O)N[C@@H](CC(C)C)C(=O)N[C@@H](CC(C)C)C(=O)N[C@@H](CCCCN)C(N)=O` [LNWGALLKHLLK], the MIC in [7] worked out at 1.6 µM (≈ 2.25 µg/mL); in test [8] it was 6.7 µM (≈ 9.41 µg/mL); in test [9], 3.8 µM (≈ 5.34 µg/mL); in [10], 2.2 µM (≈ 3.09 µg/mL); in [11], 40 µM (≈ 56.2 µg/mL); in test [12], 6.7 µM (≈ 9.41 µg/mL).

For the molecule `CC[C@H](C)[C@H](NC(=O)[C@H](CCCN=C(N)N)NC(=O)[C@H](CCCN=C(N)N)NC(=O)[C@@H]1CCCN1C(=O)[C@@H]1CCCN1C(=O)[C@H](CCCN=C(N)N)NC(=O)[C@H](CCCN=C(N)N)NC(=O)[C@H](CCCN=C(N)N)NC(=O)[C@@H]1CCCN1C(=O)[C@H](CCCN=C(N)N)NC(=O)[C@H](Cc1ccc(O)cc1)NC(=O)[C@@H]1CCCN1C(=O)[C@H](CCCCN)NC(=O)[C@H](CCCCN)NC(=O)[C@H](CC(=O)O)NC(=O)[C@@H](N)C(C)C)C(=O)N[C@@H](Cc1ccc(O)cc1)C(=O)N[C@@H](CC(N)=O)C(=O)N[C@@H](CCCN=C(N)N)C(N)=O` [VDKKPYRPRRRPPRRIYNR], the MIC in test [1] stood at 0.634 µM (≈ 1.6 µg/mL).

The molecule `CC[C@H](C)[C@H](NC(=O)[C@H](CC(N)=O)NC(=O)[C@H](CCCN=C(N)N)NC(=O)[C@H](CCC(N)=O)NC(=O)[C@H](Cc1c[nH]c2ccccc12)NC(=O)[C@@H](N)Cc1ccccc1)C(=O)N[C@@H](CCCN=C(N)N)C(=O)N[C@@H](CCCCN)C(=O)N[C@@H](CC(C)C)C(=O)N[C@@H](CCCN=C(N)N)C(N)=O` [FWQRNIRKLR] displayed an MIC in test [5] not below 176 µM.

In [5], `NC(=O)CC[C@H](NC(=O)[C@H](Cc1c[nH]c2ccccc12)NC(=O)[C@@H](N)Cc1ccccc1)C(=O)N[C@@H](CCCN=C(N)N)C(=O)N[C@@H](CC(N)=O)C(=O)N[C@@H](Cc1c[nH]c2ccccc12)C(=O)N[C@@H](CCCN=C(N)N)C(=O)N[C@@H](Cc1ccccc1)C(=O)N[C@@H](CCCN=C(N)N)C(=O)N[C@@H](CCCN=C(N)N)C(N)=O` [FWQRNWRFRR] yielded an MIC not below 161 µM.

Molecule `CC[C@H](C)[C@H](NC(=O)[C@H](CC(N)=O)NC(=O)[C@H](CCCN=C(N)N)NC(=O)[C@H](CCC(N)=O)NC(=O)[C@H](Cc1c[nH]c2ccccc12)NC(=O)[C@@H](N)Cc1ccccc1)C(=O)N[C@@H](Cc1c[nH]c2ccccc12)C(=O)N[C@@H](CCCN=C(N)N)C(=O)N[C@@H](CCCN=C(N)N)C(N)=O` [FWQRNIWRR] showed an MIC in [5] not below 184 µM.

Turning to `CC[C@H](C)[C@H](NC(=O)[C@H](CCCN=C(N)N)NC(=O)[C@H](CCCN=C(N)N)NC(=O)[C@@H]1CCCN1C(=O)[C@@H]1CCCN1C(=O)[C@H](CCCN=C(N)N)NC(=O)[C@@H]1CCCN1C(=O)[C@H](CCCN=C(N)N)NC(=O)[C@@H]1CCCN1C(=O)[C@H](CC(C)C)NC(=O)[C@H](CCCCN)NC(=O)[C@@H]1CCCN1C(=O)[C@@H]1CCCN1C(=O)[C@H](CCCCN)NC(=O)[C@H](CC(=O)O)NC(=O)[C@@H](N)C(C)C)C(=O)N[C@@H](Cc1ccc(O)cc1)C(=O)N[C@@H](CC(N)=O)C(=O)N[C@@H](CCCN=C(N)N)C(N)=O` [VDKPPKLPRPRPPRRIYNR], in test [1], the MIC worked out at 2.04 µM (≈ 4.8 µg/mL). This counts as single-digit micromolar.

Regarding `CC[C@H](C)[C@H](NC(=O)[C@H](C)NC(=O)CNC(=O)[C@H](Cc1c[nH]c2ccccc12)NC(=O)[C@H](CC(N)=O)NC(=O)[C@@H](N)CC(C)C)C(=O)N[C@@H](CC(C)C)C(=O)N[C@@H](CCCCN)C(=O)N[C@@H](Cc1cnc[nH]1)C(=O)N[C@@H](CCCCN)C(=O)N[C@H](C(=O)N[C@@H](CCCCN)C(N)=O)[C@@H](C)CC` [LNWGAILKHKIK], the MIC in [7] was not below 41.7 µM; in test [8], not below 100 µM; in [9] it was not below 100 µM; in [10] it was 30 µM (≈ 42.6 µg/mL); in test [11], more than 100 µM; in [12], more than 100 µM.

Take `CC[C@H](C)[C@H](NC(=O)[C@H](Cc1cnc[nH]1)NC(=O)[C@H](CCCCN)NC(=O)[C@H](CC(C)C)NC(=O)[C@H](CCCCN)NC(=O)[C@H](C)NC(=O)CNC(=O)[C@H](Cc1c[nH]c2ccccc12)NC(=O)[C@H](CC(N)=O)NC(=O)[C@@H](N)CC(C)C)C(=O)N[C@H](C(=O)N[C@@H](CCCCN)C(N)=O)[C@@H](C)CC` [LNWGAKLKHIIK]: the MIC was not below 55.8 µM in test [7]; not below 50 µM in [8]; not below 100 µM in test [9]; not below 38.8 µM in test [10]; more than 100 µM in [11]; more than 100 µM in [12].
